Experimental data reported in patent US20220372014A1, “NEUROPROTECTIVE COMPOUNDS AND METHODS OF USE THEREOF” (The Johns Hopkins University, priority 2019, published 2022).
Where a SMILES comes first, the peptide text is derived from it. The star is where a group is joined. Cbz = O=C(OCc1ccccc1)*; CH2F = FC*

Columns and labels:
[1] = tested on: SH-SY5Y cells; experiment: Staurosporine (STS)-induced apoptotic cell death, Alamar blue; format: cell-based; conditions: 0.5 μM STS
Procedure: (§1) Graphs represent mean±s.e.m. ***P<0.0005, two-way ANOVA followed by Tukey's post hoc test (n=3). A PARP inhibitor, ABT-888 is used for the positive control. FIGS. 12B and 12C show in vitro oxidoreductase and tautomerase activity of MIF/PAAN with compound 41, 56, 76, or 77. FIGS. 12D and 12E show Alamar blue cell viability assay from SH-SY5Y cells pre-incubated with compound 41, 56, 76, or 77 in response to 0.5 μM staurosporine (STS) or from HT 22 cells incubated with 1 ng/ml of TNF-α with 50 μM z-VAD. A pan caspase inhibitor, z-VAD or necrostatin (Nec-1) is used for the positive control and PARP inhibitor, ABT-888 is used for negative control. Bars represent mean±s.e.m. ***P<0.0005, two-way ANOVA followed by Tukey's post hoc test (n=3). […] Bars represent mean±s.e.m. **P<0.005, ***P<0.0005, two-way ANOVA followed by Tukey's post hoc test (n=3).
(§2) FIGS. 14A-14G show the characterization of compound 121. […] Bars represent means±s.e.m. ***P<0.0005, two-way ANOVA followed by Tukey's post hoc test (n=4). […] Bars represent mean±s.e.m. ***P<0.0005, two-way ANOVA followed by Tukey's post hoc test (n=4). […] Bars represent means±s.e.m. **P<0.005, ***P<0.0005, one-way ANOVA followed by Tukey's post hoc test (n=3). […] Bar represent mean±s.e.m. ***P<0.0005, one-way ANOVA followed by Tukey's post hoc test (n=3). […] Quantification of inhibition of PARP-1 activity by compound 56, compound 121 and ABT-888 is shown. Graphs represent mean±s.e.m. ***P<0.0005, two-way ANOVA followed by Tukey's post hoc test (n=3). FIGS. 14F and 14G show Alamar blue cell viability assay from SH-SY5Y cells pre-incubated with either compound 56 or 121 in response to (14F) 0.5 μM staurosporine (STS) or (14G) from HT 22 cells incubated with 1 ng/ml of TNF-α with 50 μM z-VAD. Bars represent mean±s.e.m. ***P<0.0005, two-way ANOVA followed by Tukey's post hoc test (n=5).
(§3) Cell death and viability assessment. Primary cultured cortical neurons were treated with 5 μg/ml of α-syn PFF for 14 days and cell death was determined by staining of all nuclei with 7 μM Hoechst 33342 and dead cell nuclei with 2 μM propidium iodide (PI) (Invitrogen). The numbers of total and dead cells were counted with the Axiovision 4.6 software (Carl Zeiss). Cell viability was determined by fluorescence at an excitation wavelength 570 nm and an emission wavelength 585 nm using Alamar Blue (Invitrogen).

[2] = tested on: SH-SY5Y cells; experiment: MNNG-induced parthanatic cell death in SH-SY5Y cells (Alamar blue cell viability); format: cell-based; conditions: 50 μM MNNG for 15 min, viability after 24 h
Excerpt: We developed an assay to screen for PAAN/MIF nuclease inhibitors. Single-stranded PAAN/MIF nuclease DNA substrate (FIG. 10A) was amine modified on the 5′ end and immobilized on a plate. Hybridization with a biotin-labeled complementary oligonucleotide followed by addition of streptavidin conjugated horseradish peroxidase enzyme (HRP) leads to retention of HRP on the surface within each well in the presence of intact PAAN/MIF nuclease DNA substrate, which can be quantitatively detected through colorimetric change at 450 nm using the HRP substrate 3,3′,5,5′-tetramethylbenzidine (TMB). In the presence of WT PAAN/MIF, there is reduced signal, indicative of cleavage of the PAAN/MIF nuclease substrate, while the signal is not attenuated without recombinant PAAN/MIF (FIGS. 1 and 10B). […] Thus, the rapafucin library containing 45,000 macrocyclic compounds in 3,000 pools of 15 compounds was screened using this assay. […] Several pools were identified that inhibit PAAN/MIF nuclease activity from the primary screen (FIG. 4A). […] Nine pools of compounds were identified that both inhibit PAAN/MIF cleavage of the substrate and protect against MNNG-induced parthanatic cell death by greater than 70% (FIG. 10D). […] Next, the 90 individual compounds in the 6 pools were synthesized and further assessed for inhibition of PAAN/MIF nuclease activity and MNNG-induced parthanatic cell death. Among them 12 compounds (compounds 16-18, 26-28, 41, 56, 66, 67, 76, and 77) were identified that block MIF nuclease activity and MNNG-induced parthanatic cell death by greater than 60% (FIG. 10F). Dose dependence (0.1 to 1.0 μM) were assessed for the 12 compounds against MNNG-induced parthanatic cell death (FIG. 11A and Table 2) and inhibition of PAAN MIF nuclease activity against the RF (FIG. 111B) and PS30 substrates (FIG. 11C).
Cell culture, transfection, primary neuronal culture and treatment. SH-SY5Y cells (ATCC) were cultured in DMEM containing 10% fetal bovine serum and penicillin/streptomycin at 37° C. under 5% C02. The cells were transfected using PolyFect reagent (Qiagen). Parthanatos was induced by the treatment of 50 μM MNNG for 15 min in SH-SY5Y cells. ABT-888 or PAAN/MIF inhibitors were pretreated with indicated concentration 1 h before MNNG treatment and cell death were assessed after 24 h. Primary cortical neurons from WT, PAAN/MIF KO, E22Q KI or P1G KI embryos were prepared as previously described See Kam et al. (2018) Science 362:eaat8407. Briefly, the cortex was dissected and cultured at embryonic day 16 in neurobasal media supplemented with B-27, 0.5 mM L-glutamine, penicillin and streptomycin (Invitrogen). Primary neurons were infected with AAV2-control, AAV2-PAAN/MIF WT, AAV2-PAAN/MIF E22Q, AAV2-PAAN/MIF E22A or AAV2-MIF P1G (ViGene Biosciences) at days in vitro (DIV) 4-5. ABT-888 or PAAN/MIF inhibitors were applied to neurons 1 h before α-syn PFF treatment. The neuron growth medium was replaced with fresh medium alone or including inhibitors every 3-4 days. α-syn PFF was added at DIV 7 and further incubated for indicated times followed by the cell death assay or biochemical experiments.
as §3, with “Blue (Invitrogen). […]” for “Blue (Invitrogen).”

[3] = tested on: HT 22 cells; experiment: TNF-α and z-VAD-induced necroptosis, Alamar blue; format: cell-based; conditions: 1 ng/ml TNF-α with 50 μM z-VAD
Procedure: as §1, §2, §3

[4] = tested on: cortical neurons; experiment: Nuclear translocation of AIF and PAAN/MIF after α-syn PFF treatment in cortical neurons (subcellular fractionation); format: cell-based, mouse; conditions: primary neuronal cultures
Excerpt: FIGS. 3A-3H show PAAN/MIF nuclease activity is required for prevention of α-syn PFF-induced neurotoxicity in neurons. […] See Donawho, et al. (2007) Clin. Cancer Res. 13:2728-37. Intensity of PAAN/MIF and AIF signal is shown in the graph. **P<0.005 versus the PBS control group in the nuclear (N) fraction, two-way ANOVA followed by Tukey's post hoc test. […] Intensity of AIF-bound PAAN/MIF is shown in the graph. *P<0.05, student's t-test. […] Scale bars, 20 μm. The white color in the merged images indicates the overlay of AIF, PAAN/MIF and Hoechst dye in the nucleus. The percentage of cells with nuclear localization of PAAN/MIF and AIF is shown in the graph. ***P<0.0005, student's t-test. […] Intensity of noncleaved genomic DNA is shown in the graph. ***P<0.0005, two-way ANOVA. […] Scale bar, 20 μm. […] Bars represent mean±s.e.m. ***P<0.0005, two-way ANOVA followed by Tukey's post hoc test (n=3). […] Bars represent mean±s.e.m. ***P<0.0005, two-way ANOVA followed by Tukey's post hoc test (n=5). […]
Subcellular fractionation. Subcellular fraction and quantification of relative levels of AIF and PAAN/MIF were performed as previously described. […] Each fractions were monitored by PARP-1 antibody (BD) for the nuclear fraction and HSP60 antibody (cell signaling) for the postnuclear fraction.

Structure (SMILES): CC(NC(=O)C(NC(=O)OCc1ccccc1)C(C)C)C(=O)NC(CC(=O)O)C(=O)CF (stereo not drawn) [Z-VAD, reference compound] (Cbz-Val-Ala-Asp-CH2F; configuration not given here)
- staurosporine (STS)-induced apoptotic cell death [1]: prevents

Structure (SMILES): C=CC[C@@H]1/C=C(\C)C[C@H](C)C[C@H](OC)[C@H]2O[C@@](O)(C(=O)C(=O)N3CCCC[C@H]3C(=O)O[C@H](/C(C)=C/[C@@H]3CC[C@@H](O)[C@H](OC)C3)[C@H](C)[C@@H](O)CC1=O)[C@H](C)C[C@@H]2OC [FK506, reference compound]
- inhibition of MNNG-induced parthanatic cell death [2]: failed to inhibit

Structure (SMILES): CN1C(=O)C(Cc2c[nH]c3ccccc23)NC1=S (stereo not shown) [Nec-1, necrostatin, reference compound]
- TNFα and Z-VAD-induced necroptosis [3]: prevents

Structure (SMILES): CO[C@H]1C[C@@H]2CC[C@@H](C)[C@@](O)(O2)C(=O)C(=O)N2CCCC[C@H]2C(=O)O[C@H]([C@H](C)C[C@@H]2CC[C@@H](O)[C@H](OC)C2)CC(=O)[C@H](C)/C=C(\C)[C@@H](O)[C@@H](OC)C(=O)[C@H](C)C[C@H](C)/C=C/C=C/C=C/1C [rapamycin, reference compound]
- inhibition of MNNG-induced parthanatic cell death [2]: failed to inhibit

Structure (SMILES): C[C@]1(c2nc3c(C(N)=O)cccc3[nH]2)CCCN1 [ABT-888, reference compound]
- TNFα and Z-VAD-induced necroptosis [3]: not prevented
- α-syn PFF-induced nuclear translocation of PAAN/MIF and AIF [4]: attenuated
- staurosporine (STS)-induced apoptotic cell death [1]: do not inhibit
